The text below walks through data of patent US7736649B2, “Methods of inhibiting human immunodeficiency virus infection through the administration of synergistic combinations of anti-CCR5 monoclonal antibodies, fusion inhibitors, and CD4-GP120 binding inhibitors” (priority 2000, dated 2010).

In general, inhibition refers to how much of the control response was suppressed.

Read-outs that look alike come from different tables or passages of the source.

The subject of data set [1] is HIV-1JR-FL env-mediated membrane fusion. On the procedure:
HIV-1 envelope-mediated fusion between HeLa-EnvJR-FL and PM1 cells was detected using a Resonance Energy Transfer (RET) assay.
HIV-1 inhibition data were analyzed according to the Combination Index method of Chou and Talay. The data are modeled according to the median-effect principle, which can be written f=1/[1+(K/c)^m] (1) where f is the fraction affected/inhibited, c is concentration, K is the concentration of agent required to produce the median effect, and m is an empirical coefficient describing the shape of the dose-response curve. Equation (1) is a generalized form of the equations describing Michaelis-Menton enzyme kinetics, Langmuir adsorption isotherms, and Henderson-Hasselbalch ionization equilibria, for which m=1 in all cases. In the present case, K is equal to the IC50 value. K and m are determined by curve-fitting the dose-response curves.
After the best-fit parameters for K and m are obtained for the experimental agents and their combination, Equation (1) is rearranged to allow for calculation of c for a given f. The resulting table of values (e.g., Figure X) is used to calculate the Combination Index (CI) using the equation CI=c1m/c1+c2m/c2+c1mc2m/c1c2 (2) where • c1=concentration of compound 1 when used alone • c2=concentration of compound 2 when used alone • C1m=concentration of compound 1 in the mixture • C2m=concentration of compound 2 in the mixture
All concentrations are those required to achieve a given degree of inhibition. Equation (2) is used when the molecules are mutually nonexclusive, i.e., have different sites of action. Since this is the likely scenario for inhibitors of HIV-1 attachment and gp41 fusion intermediates, Equation (2) was used for all Combination Index calculations. Mutually nonexclusive calculations provide a more conservative estimate of the degree of synergy that mutually exclusive calculations, for which the c1mc2m/c1c2 term is dropped. CI<1 indicates synergy, CI=1 indicates purely additive effects, and CI>1 indicates antagonism. In general, CI values are most relevant at the higher levels of inhibition that are required to achieve a measurable clinical benefit.
After the best-fit parameters for K and m are obtained for the experimental agents and their combination, Equation (1) is rearranged to allow for calculation of c for a given f. The resulting table of values (e.g., Figure X) is used to calculate the Combination Index (CI) using the equation CI=c1m/c1+c2m/c2+c1mc2m/c1c2 (2) where • c1=concentration of compound 1 when used alone • c2 concentration of compound 2 when used alone • c1m=concentration of compound 1 in the mixture • c2m=concentration of compound 2 in the mixture
HIV-1 cell-cell fusion assays Cell-cell fusion mediated by the envelope glycoproteins of HIV-1JR-FL and HIV-1LAI was measured using a fluorescence resonance energy transfer (RET) assay, which measures fusion between HeLa cells expressing HIV-1 envelope glycoproteins and CD4^+ target cells. The T cell lines PM1 and SupT1 were used as target cells in this study. PM1 endogenously express CCR5 and CXCR4. […] The RET signal is directly related to the extent of membrane fusion.
(§1) Quantitative analysis of drug interactions Inhibition data from three independent assays were averaged and analyzed for cooperative effects using the Combination Index (CI) method. In all analyses, PRO 542 and T-20 were assumed to act non-competitively, which leads to a more conservative estimate of synergy. CI values of <0.9 (or >1.1) were taken to represent meaningful synergy (or antagonism). Dose reductions were calculated as the ratio of drug concentrations required for inhibition when the drug is used, alone or in combination.
An HIV-1 cell-cell fusion assay is described in FIG. 18. Such assay is a Resonance Energy Transfer (RET) assay of HIV-1 membrane fusion.

For another data set, the system named is HIV-1JR-FL (R5). The method, then:
HIV-1 virus-cell fusion assays NLluc^+env^− viruses were complemented in trans by the envelope glycoproteins (Env) from HIV-1JR-FL (R5) or HIV-1DH123 (R5X4). HeLa-CD4^+CCR5^+ cells were infected with chimeric reporter viruses containing 50-100 ng/ml of p24 in the presence or absence of drugs. Cells were washed and fed fresh drug-containing media at 2 h and drug-free media at 12 h. After 72 h, cell lysates were assayed for luciferase activity.
as §1
An HIV-1 virus-cell fusion assay is described in FIG. 15. In a single-cycle HIV-1 entry assay, Env-Luc+ HIV reporter viruses were prepared as described. The viruses are complemented with gp120/gp41 from an HIV strain of interest and thus are capable of fusing with target cells that express CD4 and fusion coreceptors, resulting in the introduction of the viral genes into the cell. Because the viruses encode the luciferase reporter enzyme rather than HIVenv, infection leads to the production of luciferase rather than new viral particles. The amount of luciferase is measured 72 hours post-infection using standard methods.

For data set [2], the system named is HIV-1 fusion intermediates. The following applies: cited from earlier work.
Another data set relates to HIV-1. The following applies: cited from earlier work.
Where [3] appears, read: cells and inhibitor co-incubated 2 h at 25° C. prior to washing and warming to 37° C., data not shown.

For the substance enfuvirtide, the “concentration of the agent contained in the combination at 95% inhibition” value in data set [1] (25:1 CD4-IgG2:T-20 mass ratio combination) worked out at 0.044 µg/mL. Further, in data set [1] (95% inhibition, 25:1 mass ratio), the “dose reduction (alone v. in combination)” value is recorded as 5 fold. Further, the “activity in cell-cell preincubation assay, in words” value in data set [1] (HeLa-Env and PM1 cells co-incubated 2 h at 25° C., inhibitor added, warmed to 37° C.) is “fully active”. In data set [1] (agent used alone, or total of 25:1 mass ratio combination), the “concentration required for inhibition of viral entry by 95%” value is 0.21 µg/mL. For the same substance, the IC90 in data set [1] (alone, or total of 1:10 molar PRO 542:T-20 combination) turned out to be 0.022 µM; in data set [1] (read-out: concentration of the agent in the combination at IC90, 1:10 molar combination) it was 0.0049 µM; with HIV-1JR-FL (R5) (read-out: IC90 (concentration required for 90% inhibition), alone, or total of 1:2 molar PRO 542:T-20 combination), 0.045 µM; with HIV-1JR-FL (R5) (read-out: concentration of the agent in the combination at IC90, 1:2 molar combination), 0.0026 µM. Also, the “K (concentration producing the median effect, equal to IC50)” value in data set [1] (best-fit median-effect parameter, 4 h incubation, mean of three experiments) was determined as 0.017 mg/L. In data set [1] (setting [3]), the “activity, in words” value was “essentially inactive”. Also, the “fold increase in IC50” value in data set [1] (setting [3]) is recorded as above 250 fold. Further, in data set [1] (data not shown), the “activity when pre-incubated with PM1 cells prior to washing” value is listed as “Neither drug demonstrated activity”. Also, in data set [1] (drug pre-incubated with HeLa-Env cells, washed, then PM1 cells added), the “activity in washout assay, in words” value was “essentially inactive”. For the same substance, the “dose reduction (fold less drug needed)” value with HIV-1JR-FL (R5) (90-95% inhibition, 1:2 molar) is on record as around 20 fold. Also, the inhibition is reported as below 10% in data set [2] (added at 75 minutes) and 100% in data set [2] (added within the first 15 minutes of cell mixing). For the same substance, in the data set with HIV-1 (Phase I/II clinical trials), the “pK, in words” value is “supports twice daily subcutaneous dosing”. In addition, in the data set with HIV-1 (Phase I/II clinical trials), the tolerability result is “good tolerability”. Also, the “viral load, in words” value in the data set with HIV-1 (Phase I/II clinical trials) is “clinically significant dose-dependent reductions”. Besides, the “reduction of plasma HIV RNA levels” value with HIV-1 (Phase I/II) was at most 2 logs. For the same substance, the “reductions in HIV RNA” value in the data set on HIV-1 (single agent, Phase I/II trials) is 1-2 log10.
